The structures appear in SMILES notation.

The target of the first experiment is HPK1 (Homo sapiens, UniProt Q92918). The experiment is described as follows: HPK1 Biochemical Assay (ADP-Glo luminescence; low ATP 10 μM or high ATP 200 μM). The note with it: 2 nM HPK1, 10 μM ATP; read-out: Biochemical Potency (low ATP). How it is done: Dose-response assays were performed in Corning® Low Volume 384-well assay plates containing 100 nL of 22 serial 2-fold compound dilutions. Wells containing DMSO alone were used as negative control. A kinase mixture (5 μL) containing 2 nM HPK1 (or 5 nM for high ATP assay) in assay buffer (50 mM Hepes pH 7.4, 10 mM MgCl2, 0.01% Brij-15, 0.01% bovine serum albumin, and 1 mM dithiothreitol) was added to the assay plates and incubated at 25° C. for 1 hour. Wells without HPK1 were used as positive control. A […] of 10 μM ATP (or 200 μM for high ATP) and 0.2 μg/μL […] was then added to the wells, resulting in a 10 μL total reaction volume. Following incubation of the assay plates at 25° C. for 1 hour, 10 μL of ADP-Glo reagent was added to the wells and the plates were incubated at 25° C. for a further 40 minutes (or 1 hour for high ATP assay). Finally, 20 μL of Kinase Detection Reagent was added, and the plates were incubated for another 30 minutes at 25° C. An Envision plate reader was then used to detect the luminescence signals. IC50 values were determined by fitting the data to a standard 4-parameter logistic equation. The results are summarized in the Biochemical Potency columns of Tables 4 and 5 below (Biochemical Potency (high ATP); Biochemical Potency (low ATP)).
Chain of HPK1 (Q92918 whole entry, species assumed): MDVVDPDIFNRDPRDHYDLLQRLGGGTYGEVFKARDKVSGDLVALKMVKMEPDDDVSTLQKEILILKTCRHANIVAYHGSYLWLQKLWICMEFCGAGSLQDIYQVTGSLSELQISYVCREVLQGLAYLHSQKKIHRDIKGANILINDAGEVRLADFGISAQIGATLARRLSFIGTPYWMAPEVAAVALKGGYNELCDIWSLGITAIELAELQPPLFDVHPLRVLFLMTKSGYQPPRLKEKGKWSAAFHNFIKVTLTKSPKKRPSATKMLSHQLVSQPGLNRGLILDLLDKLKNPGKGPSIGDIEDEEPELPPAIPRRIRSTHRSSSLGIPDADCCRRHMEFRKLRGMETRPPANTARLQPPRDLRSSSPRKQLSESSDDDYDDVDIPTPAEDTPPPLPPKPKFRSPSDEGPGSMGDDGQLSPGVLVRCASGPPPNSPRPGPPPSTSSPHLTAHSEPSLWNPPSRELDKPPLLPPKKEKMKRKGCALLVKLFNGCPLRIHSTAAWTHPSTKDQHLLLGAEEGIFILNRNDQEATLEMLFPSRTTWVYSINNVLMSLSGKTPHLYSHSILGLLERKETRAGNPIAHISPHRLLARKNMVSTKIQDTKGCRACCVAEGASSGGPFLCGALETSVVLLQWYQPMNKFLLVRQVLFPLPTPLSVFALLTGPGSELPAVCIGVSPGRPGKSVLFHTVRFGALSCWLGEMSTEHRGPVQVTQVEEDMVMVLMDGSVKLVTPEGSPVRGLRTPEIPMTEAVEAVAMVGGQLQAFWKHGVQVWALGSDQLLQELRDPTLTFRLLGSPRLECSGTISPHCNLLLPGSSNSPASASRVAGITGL
A general note: ADP-Glo turns the ADP formed in a reaction into a luminescent signal.
`Cc1cccnc1-c1nc2cc(Nc3cccc(N4C[C@@H]5C[C@H]4CN5C4CCOCC4)n3)ncc2s1` [Example 117, N-[2-(3-Methylpyridin-2-yl)-[1,3]thiazolo[5,4-c]pyridin-6-yl]-6-[(1S,4S)-5-(oxan-4-yl)-2,5-diazabicyclo[2.2.1]heptan-2-yl]pyridin-2-amine]: the IC50 was less than 100 nM.

With `Cc1cc(Nc2cc3nc(-c4ccnn4C)sc3cn2)nc(O[C@H]2CCNC2)c1` [Example 181, 4-Methyl-N-[2-(1-methyl-1H-pyrazol-5-yl)-[1,3]thiazolo[5,4-c]pyridin-6-yl]-6-[(3S)-pyrrolidin-3-yloxy]pyridin-2-amine], the IC50 is less than 100 nM. For the compound `c1cc(C2CCOCC2)c(CN2CCCC2)nc1Nc1cc2nc(N3CCCCC3)sc2cn1` [Example 232, 5-(Oxan-4-yl)-N-[2-(piperidin-1-yl)-[1,3]thiazolo[5,4-c]pyridin-6-yl]-6-[(pyrrolidin-1-yl)methyl]pyridin-2-amine], the IC50 is less than 100 nM. On the same count and under the same terms, in the case of `Cc1ccc(Nc2cc3nc(-c4ncccc4C)sc3cn2)nc1CN1CCC[C@H]1CO` [Example 48, [(2S)-1-[(3-Methyl-6-{[2-(3-methylpyridin-2-yl)-[1,3]thiazolo[5,4-c]pyridin-6-yl]amino}pyridin-2-yl)methyl]pyrrolidin-2-yl]methanol] it was less than 100 nM. On the same count and under the same terms, in the case of `Cc1ccc(Nc2cc3nc(-c4cnn(C5CCOC5)c4)sc3cn2)nc1CN1CCCC1` (stereo not drawn) [Example 38, 5-Methyl-N-{2-[1-(oxolan-3-yl)-1H-pyrazol-4-yl]-[1,3]thiazolo[5,4-c]pyridin-6-yl}-6-[(pyrrolidin-1-yl)methyl]pyridin-2-amine] it was less than 100 nM. The same measure, in the same setting: in the case of `c1cc(C2CCOCC2)c(CN2CCCC2)nc1Nc1cc2nc(N3C[C@H]4C[C@@H]3CO4)sc2cn1` [Example 238, N-{2-[(1R,4R)-2-Oxa-5-azabicyclo[2.2.1]heptan-5-yl]-[1,3]thiazolo[5,4-c]pyridin-6-yl}-5-(oxan-4-yl)-6-[(pyrrolidin-1-yl)methyl]pyridin-2-amine] it was 100 to 1000 nM; in that of `Cc1cccnc1-c1nc2cc(Nc3cc(N4C[C@@H]5C[C@H]4CN5)ccn3)ncc2s1` [Example 86, 4-[(1S,4S)-2,5-Diazabicyclo[2.2.1]heptan-2-yl]-N-[2-(3-methylpyridin-2-yl)-[1,3]thiazolo[5,4-c]pyridin-6-yl]pyridin-2-amine], more than 5000 nM; in that of `Cc1ccc(Nc2cc3nc(-c4cc(F)cc(F)c4)sc3cn2)nc1CN1CCCC1` [Example 33, N-[2-(3,5-Difluorophenyl)-[1,3]thiazolo[5,4-c]pyridin-6-yl]-5-methyl-6-[(pyrrolidin-1-yl)methyl]pyridin-2-amine], 100 to 1000 nM.

Turning to `Cc1cccnc1-c1nc2cc(Nc3cccc(N4C[C@@H]5CCN(C)[C@@H]5C4)n3)ncc2s1` [Example 111, 6-[(3aS,6aS)-1-Methyl-octahydropyrrolo[3,4-b]pyrrol-5-yl]-N-[2-(3-methylpyridin-2-yl)-[1,3]thiazolo[5,4-c]pyridin-6-yl]pyridin-2-amine], the IC50 is less than 100 nM. In the case of `Cc1cccnc1-c1nc2cc(Nc3ccc(C)c(N4CCC[C@H]4CN)n3)ncc2s1` [Example 72, 6-[(2S)-2-(Aminomethyl)pyrrolidin-1-yl]-5-methyl-N-[2-(3-methylpyridin-2-yl)-[1,3]thiazolo[5,4-c]pyridin-6-yl]pyridin-2-amine], the IC50 is less than 100 nM. On the same count and under the same terms, the figure for `Cc1cccc(C)c1-c1nc2cc(Nc3ccc(N4CCC(F)(F)C4)c(CN4CCCC4)n3)ncc2s1` [Example 10, 5-(3,3-Difluoropyrrolidin-1-yl)-N-[2-(2,6-dimethylphenyl)-[1,3]thiazolo[5,4-c]pyridin-6-yl]-6-[(pyrrolidin-1-yl)methyl]pyridin-2-amine] is less than 100 nM; for `Cc1cccnc1-c1nc2cc(Nc3nccc(N4C[C@@H](N)C[C@H]4CO)n3)ncc2s1` [Example 242, [(2S,4S)-4-amino-1-(2-{[2-(3-Methylpyridin-2-yl)-[1,3]thiazolo[5,4-c]pyridin-6-yl]amino}pyrimidin-4-yl)pyrrolidin-2-yl]methanol] it is 100 to 1000 nM. For the compound `Cc1ccc(Nc2cc3nc(-c4cnn(CCO)c4)sc3cn2)nc1CN1CCCC1` [Example 40, 2-{4-[6-({5-Methyl-6-[(pyrrolidin-1-yl)methyl]pyridin-2-yl}amino)-[1,3]thiazolo[5,4-c]pyridin-2-yl]-1H-pyrazol-1-yl}ethan-1-ol], the IC50 was less than 100 nM. Take `Cc1ccc(Nc2cc3nc(-c4ncccc4C(C)C)sc3cn2)nc1CN1CCCC1` [Example 50, 5-Methyl-N-{2-[3-(propan-2-yl)pyridin-2-yl]-[1,3]thiazolo[5,4-c]pyridin-6-yl}-6-[(pyrrolidin-1-yl)methyl]pyridin-2-amine]: the IC50 was less than 100 nM. On to `CCNCc1nc(Nc2cc3nc(-c4c(C)cccc4F)sc3cn2)ccc1N1CCC(F)(F)C1` [Example 279, 5-(3,3-Difluoropyrrolidin-1-yl)-6-[(ethylamino)methyl]-N-[2-(2-fluoro-6-methylphenyl)-[1,3]thiazolo[5,4-c]pyridin-6-yl]pyridin-2-amine], for which the IC50 is less than 100 nM. The same measure, in the same setting: in the case of `Cc1ncccc1-c1nc2cc(Nc3cccc(N4C[C@@H]5C[C@H]4CN5C)n3)ncc2s1` [Example 138, 6-[(1S,4S)-5-Methyl-2,5-diazabicyclo[2.2.1]heptan-2-yl]-N-[2-(2-methylpyridin-3-yl)-[1,3]thiazolo[5,4-c]pyridin-6-yl]pyridin-2-amine] it was less than 100 nM; in that of `Cc1cccnc1-c1nc2cc(Nc3ccc(N4CCOCC4)c(CN4CCCCC4)n3)ncc2s1` [Example 64, N-[2-(3-Methylpyridin-2-yl)-[1,3]thiazolo[5,4-c]pyridin-6-yl]-5-(morpholin-4-yl)-6-[(piperidin-1-yl)methyl]pyridin-2-amine], less than 100 nM. Same read-out and setting: the figure for `Cc1ccncc1-c1nc2cc(Nc3ccc(C)c(O[C@H]4CCNC4)n3)ncc2s1` [Example 173, 5-Methyl-N-[2-(4-methylpyridin-3-yl)-[1,3]thiazolo[5,4-c]pyridin-6-yl]-6-[(3S)-pyrrolidin-3-yloxy]pyridin-2-amine] is less than 100 nM. On to `Cc1cc(Nc2cc3nc(-c4ccncc4C)sc3cn2)nc(O[C@H]2CCNC2)c1` [Example 169, 4-Methyl-N-[2-(3-methylpyridin-4-yl)-[1,3]thiazolo[5,4-c]pyridin-6-yl]-6-[(3S)-pyrrolidin-3-yloxy]pyridin-2-amine], for which the IC50 was less than 100 nM.

Consider `c1cc(C2CCOCC2)c(CN2CCCC2)nc1Nc1cc2nc(N3C[C@@H]4C[C@H]3CO4)sc2cn1` [Example 211], for which the IC50 lay in the range of 100 to 1000 nM. Take `CC(C)c1ccc(Nc2cc3nc(-n4cccn4)sc3cn2)nc1CN1CCCC1` [Example 228, 5-(Propan-2-yl)-N-[2-(1H-pyrazol-1-yl)-[1,3]thiazolo[5,4-c]pyridin-6-yl]-6-[(pyrrolidin-1-yl)methyl]pyridin-2-amine]: the IC50 was less than 100 nM. The same measure, in the same setting: the figure for `Cc1cc(Nc2cc3nc(N4CCC[C@H](O)C4)sc3cn2)nc(O[C@H]2CCNC2)c1` [Example 192, (3S)-1-(6-{[4-Methyl-6-((3S)-pyrrolidin-3-yloxy)pyridin-2-yl]amino}-[1,3]thiazolo[5,4-c]pyridin-2-yl)piperidin-3-ol] is less than 100 nM; for `Cc1cccnc1-c1nc2cc(Nc3cccc(N4C5CC4CN(C)C5)n3)ncc2s1` [Example 99, 6-{3-Methyl-3,6-diazabicyclo[3.1.1]heptan-6-yl}-N-[2-(3-methylpyridin-2-yl)-[1,3]thiazolo[5,4-c]pyridin-6-yl]pyridin-2-amine] it is 1000 to 5000 nM; for `Cc1nccn1-c1nc2cc(Nc3ccc(C4CCOCC4)c(CN4CCCC4)n3)ncc2s1` [Example 239, N-[2-(2-Methyl-1H-imidazol-1-yl)-[1,3]thiazolo[5,4-c]pyridin-6-yl]-5-(oxan-4-yl)-6-[(pyrrolidin-1-yl)methyl]pyridin-2-amine] it is less than 100 nM.

In the case of `Cc1ccc(Nc2cc3nc(-c4ncccc4C)sc3cn2)nc1CN1CC[C@@H](F)C1` [Example 42, 6-{[(3R)-3-Fluoropyrrolidin-1-yl]methyl}-5-methyl-N-[2-(3-methylpyridin-2-yl)-[1,3]thiazolo[5,4-c]pyridin-6-yl]pyridin-2-amine], the IC50 is less than 100 nM. The same measure, in the same setting: the figure for `c1cc(C2CCOCC2)c(CN2CCCC2)nc1Nc1cc2nc(N3C4COCC3C4)sc2cn1` [Example 237, N-(2-{3-Oxa-6-azabicyclo[3.1.1]heptan-6-yl}-[1,3]thiazolo[5,4-c]pyridin-6-yl)-5-(oxan-4-yl)-6-[(pyrrolidin-1-yl)methyl]pyridin-2-amine] is less than 100 nM.

The same experiment, now with this note: HPK1 ADP-Glo assay, low ATP (10 μM ATP, 2 nM HPK1); read-out: Biochemical Potency (low ATP).
As to `CN1C[C@@H]2C[C@H]1CN2c1nccc(Nc2cc3nc(-c4ccnc(N5CC[C@@H](F)C5)c4)sc3cn2)n1` [Example 461], the IC50 was less than 100 nM.

For `CNS(=O)(=O)c1cccc(-c2nc3cc(Nc4cccc(N5C[C@@H]6C[C@H]5CN6)n4)ncc3s2)c1` [Example 324], the IC50 was less than 100 nM. With `CN1C[C@@H]2C[C@H]1CN2c1nccc(Nc2cc3nc(N4CCc5cccnc5C4)sc3cn2)n1` [Example 428], the IC50 lay in the range of 100 to 1000 nM. As to `CN1C[C@@H]2C[C@H]1CN2c1nccc(Nc2cc3nc(-c4ccnc(N5CCC[C@@H](O)C5)c4)sc3cn2)n1` [Example 459], the IC50 was less than 100 nM.

The values above are taken from patent US12649751B2 (Arcus Biosciences, Inc., priority 2022, dated 2026).
